Data as given in patent US8022072B2, “Azolylmethylidenehydrazine derivative and use thereof” (Kaken Pharmaceutical Co., Ltd., priority 2007, dated 2011).
Values after ≈ are worked out from the molar mass of the structure shown.

Legend:
Type in all cases: cell-based
[1] = test system: Trichophyton rubrum KD-101; test: Antifungal activity evaluation test, MIC, Trichophyton rubrum KD-101; conditions: KD101, 168 h, Sabouraud Dextrose Broth, 30° C., 7 days, visual, read-out: MIC T. rub. KD-101
Experimental: (§1) The minimum inhibitory concentration (MIC) for Trichophyton mentagrophytes, Trichophyton rubrum, and Malassezia furfur was measured according to the following procedure. • Test compound solution: A test compound was dissolved in dimethyl sulfoxide (DMSO) at a concentration of 5 mg/mL as a stock solution. […] Then, as a test medium, a fungal solution of Trichophyton species was 100-fold diluted with Sabouraud Dextrose Broth (Difco), and a fungal solution of Malassezia furfur IFO-0656 was 100-fold diluted with MU medium to give each inoculum (2×10^4 cells/mL). • Measurement of MIC of Trichophyton fungi: Sabouraud Dextrose Broth (Difco) was dispensed by 100 μL to a given well of a 96 well flat microplate. Then, a test compound solution (2 μL) was added, and the mixture was thoroughly mixed with a plate mixer. A fungal solution (100 μL) was inoculated and cultured at 30° C. for 7 days. The presence or absence of the cell growth was visually observed, and the minimum medicament concentration at which the cell growth was prevented was taken as MIC (μg/mL). • Measurement of MIC of Malassezia furfur: Since the urease activity of this fungus and the fungus growth rate are co-related, MIC was evaluated by the following method using urease activity as an index. MU medium was dispensed by 100 μL to a given well of a 96 well flat microplate. Then, a test compound solution (2 μL) was added, and the mixture was thoroughly mixed with a plate mixer. A fungal solution (100 μL) was inoculated and cultured at 30° C. The culture was stopped on day 4 or 5 of culture when the color tone of the MU medium changes from yellow to red in visual observation of the fungus growth in a well free of addition of a test substance. Then the plate was stirred until the fungus became uniform, and the urease activity was measured based on the measurement of absorbance at 550 nm using a plate reader.

[2] = test system: Malassezia furfur IFO-0656; test: Antifungal activity evaluation test, MIC by urease activity, Malassezia furfur IFO-0656; conditions: IFO0656, 96 h, MU medium, 30° C., day 4 or 5, urease activity of 20% or below, read-out: MIC M. fur. IFO-0656
Experimental: as §1

[3] = test system: Trichophyton mentagrophytes SM-110; test: Antifungal activity evaluation test, MIC, Trichophyton mentagrophytes SM-110; conditions: SM110, 168 h, Sabouraud Dextrose Broth, 30° C., 7 days, visual, read-out: MIC T. men. SM-110
Experimental: as §1

[4] = test system: Trichophyton rubrum KD-107; test: Antifungal activity evaluation test, MIC, Trichophyton rubrum KD-107; conditions: KD107, 168 h, Sabouraud Dextrose Broth, 30° C., 7 days, visual, read-out: MIC T. rub. KD-107
Experimental: as §1

[5] = test system: Trichophyton mentagrophytes KD-04; test: Antifungal activity evaluation test, MIC, Trichophyton mentagrophytes KD-04; conditions: KD04, 168 h, Sabouraud Dextrose Broth, 30° C., 7 days, visual, read-out: MIC T. men. KD-04
Experimental: as §1

MIC [1] [µg/mL]	MIC [2] [µg/mL]	MIC [3] [µg/mL]	MIC [4] [µg/mL]	MIC [5] [µg/mL]	Structure (SMILES)
0.78 (≈ 2.86 µM)	25 (≈ 91.8 µM)	0.2 (≈ 0.734 µM)	0.2 (≈ 0.734 µM)	0.2 (≈ 0.734 µM)	CC(C)Oc1ccccc1C(=NN(C)C)n1ccnc1 [Compound No. 19, N′-[1-imidazol-1-yl-1-(2-isopropoxyphenyl)methylidene]-N,N-dimethylhydrazine]
0.05 (≈ 0.157 µM)	0.39 (≈ 1.22 µM)	0.1 (≈ 0.314 µM)	0.05 (≈ 0.157 µM)	0.05 (≈ 0.157 µM)	CCCCCOc1ccc(F)cc1C(=NN(C)C)n1ccnc1 [Compound No. 25, N′-[1-(3-fluoro-6-pentyloxyphenyl)-1-imidazol-1-ylmethylidene]-N,N-dimethylhydrazine]
0.2 (≈ 0.624 µM)	0.62 (≈ 1.94 µM)	0.2 (≈ 0.624 µM)	0.1 (≈ 0.312 µM)	0.2 (≈ 0.624 µM)	CN(C)N=C(c1ccccc1OCc1ccccc1)n1ccnc1 [Compound No. 34, N′-[1-(2-benzyloxyphenyl)-1-imidazol-1-ylmethylidene]-N,N-dimethylhydrazine]
0.2 (≈ 0.571 µM)	0.78 (≈ 2.23 µM)	0.39 (≈ 1.11 µM)	0.1 (≈ 0.285 µM)	0.2 (≈ 0.571 µM)	COc1cccc(COc2ccccc2C(=NN(C)C)n2ccnc2)c1 [Compound No. 53, N′-[1-imidazol-1-yl-1-[2-(3-methoxybenzyloxy)phenyl]methylidene]-N,N-dimethylhydrazine]
0.05 (≈ 0.143 µM)	0.2 (≈ 0.574 µM)	0.1 (≈ 0.287 µM)	0.025 (≈ 0.0717 µM)	0.05 (≈ 0.143 µM)	CN(C)N=C(c1ccccc1OCCCc1ccccc1)n1ccnc1 [Compound No. 61, N′-[1-imidazol-1-yl-1-[2-(3-phenylpropoxy)phenyl]methylidene]-N,N-dimethylhydrazine]
0.39 (≈ 1.5 µM)	> 25	0.39 (≈ 1.5 µM)	0.39 (≈ 1.5 µM)	0.39 (≈ 1.5 µM)	CSc1ccccc1C(=NN(C)C)n1ccnc1 [Compound No. 79, N′-[1-imidazol-1-yl-1-(2-methylthiophenyl)methylidene]-N,N-dimethylhydrazine]
0.1 (≈ 0.273 µM)	0.05 (≈ 0.136 µM)	0.2 (≈ 0.546 µM)	0.05 (≈ 0.136 µM)	0.1 (≈ 0.273 µM)	CN(C)N=C(c1ccccc1SCCOc1ccccc1)n1ccnc1 [Compound No. 85, N′-[1-imidazol-1-yl-1-[2-(2-phenoxyethylthio)phenyl]methylidene]-N,N-dimethylhydrazine]
0.05 (≈ 0.16 µM)	0.78 (≈ 2.49 µM)	0.1 (≈ 0.319 µM)	0.05 (≈ 0.16 µM)	0.05 (≈ 0.16 µM)	CCCCCN(C)c1ccccc1C(=NN(C)C)n1ccnc1 [Compound No. 87, N′-[1-imidazol-1-yl-1-[2-(N-methyl-N-pentylamino)phenyl]methylidene]-N,N-dimethylhydrazine]
0.1 (≈ 0.285 µM)	6.25 (≈ 17.8 µM)	0.39 (≈ 1.11 µM)	0.1 (≈ 0.285 µM)	0.2 (≈ 0.571 µM)	CCCCCOc1ccc2ccccc2c1C(=NN(C)C)n1ccnc1 [Compound No. 93, N′-[1-imidazol-1-yl-1-(2-pentyloxynaphthalen-1-yl)methylidene]-N,N-dimethylhydrazine]
1.56 (≈ 5.18 µM)	> 25	3.13 (≈ 10.4 µM)	0.78 (≈ 2.59 µM)	1.56 (≈ 5.18 µM)	CCCCCOc1cccnc1C(=NN(C)C)n1ccnc1 [Compound No. 95, N′-[1-imidazol-1-yl-1-(3-pentyloxypyridin-2-yl)methylidene]-N,N-dimethylhydrazine]
0.025 (≈ 0.087 µM)	> 25	0.05 (≈ 0.174 µM)	0.025 (≈ 0.087 µM)	0.025 (≈ 0.087 µM)	CCCCCCn1cccc1C(=NN(C)C)n1ccnc1 [Compound No. 104, N′-[1-(1-hexylpyrrol-2-yl)-1-imidazol-1-ylmethylidene]-N,N-dimethylhydrazine]
0.1 (≈ 0.261 µM)	0.39 (≈ 1.02 µM)	0.2 (≈ 0.522 µM)	0.05 (≈ 0.131 µM)	0.1 (≈ 0.261 µM)	CCN(CC)N=C(c1ccccc1OCc1ccc(Cl)cc1)n1ccnc1 [Compound No. 118, N′-[1-[2-(4-chlorobenzyloxy)phenyl]-1-imidazol-1-ylmethylidene]-N,N-diethylhydrazine]
